Results on 1 molecule are retold here after EP1400530A1, “Suppression of immune response via inhibition of cathepsin S” (MASSACHUSETTS INSTITUTE OF TECHNOLOGY, priority 1996, dated 1997).

For the assay, the system named is Peripheral blood mononuclear cells (PBMC's). The format is cell-based, human. To be noted: 3-5 days; 20 µM.

As to `CCOC(=O)[C@H]1O[C@@H]1C(=O)N[C@@H](CC(C)C)C(=O)NCCC(C)C` (relative stereo) [E64D], the “attenuation of 3H-thymidine uptake response to tetanus toxoid” value is given as “approximately 60%”.
